Measurements from ChEMBL document CHEMBL4219034, “Synthesis, antimicrobial activity, structure-activity relationship and cytotoxic studies of a new series of functionalized (Z)-3-(2-oxo-2-substituted ethylidene)-3,4-dihydro-2H-benzo[b][1,4]oxazin-2-ones” (Bioorg Med Chem Lett, 2017).
Values after ≈ are worked out from the molar mass of the structure shown. Active and inactive are the calls of the source. The calls are words filed in the database; no cut-off is given here.

How the values were obtained:
[1] = Cytotoxicity against mouse NIH/3T3 cells assessed as cell viability at 25 ug/ml after 72 hrs by MTT assay relative to control; type: cell-based, NIH3T3; details: read-out: Activity
[2] = tested on: Trichoderma reesei; experiment: Antifungal activity against Trichoderma reesei ATCC 13631 at 100 ug/ml incubated for 72 hrs by agar disc diffusion assay; type: functional; details: for zone of inhibition at 100 µg/mL: ATCC 13631, 72 h, read-out: IZ
[3] = tested on: Staphylococcus aureus; experiment: Antibacterial activity against Staphylococcus aureus MTCC 3381 at 100 ug/ml incubated for 12 hrs by agar disc diffusion assay; type: functional; details: MTCC 3381, 12 h, read-out: IZ
[4] = tested on: Bacillus subtilis; experiment: Antibacterial activity against Bacillus subtilis MTCC 10619 at 100 ug/ml incubated for 12 hrs by agar disc diffusion assay; type: functional; details: for zone of inhibition at 100 µg/mL: MTCC 10619, 12 h, read-out: IZ
[5] = tested on: Aspergillus niger; experiment: Antifungal activity against Aspergillus niger ATCC 9029 at 100 ug/ml incubated for 72 hrs by agar disc diffusion assay; type: functional; details: for zone of inhibition at 100 µg/mL: ATCC 9029, 72 h, read-out: IZ
[6] = tested on: Staphylococcus aureus; experiment: Potency index, ratio of ampicillin MIC to compound MIC for Staphylococcus aureus MTCC 3381 by serial dilution method; type: functional
[7] = tested on: Fusarium oxysporum; experiment: Antifungal activity against Fusarium oxysporum ATCC 62506 at 100 ug/ml incubated for 72 hrs by agar disc diffusion assay; type: functional; details: ATCC 62506, 72 h, read-out: IZ
[8] = tested on: Escherichia coli; experiment: Antibacterial activity against Escherichia coli MTCC 443 incubated for 24 hrs by serial dilution method; type: functional; details: MTCC 443, 24 h
[9] = Cytotoxicity against mouse NIH/3T3 cells assessed as cell viability at 250 ug/ml after 72 hrs by MTT assay relative to control; type: cell-based, NIH3T3; details: read-out: Activity
[10] = tested on: Staphylococcus aureus; experiment: Antibacterial activity against Staphylococcus aureus MTCC 3381 incubated for 24 hrs by serial dilution method; type: functional; details: MTCC 3381, 24 h
[11] = tested on: Trichoderma reesei; experiment: Antifungal activity against Trichoderma reesei ATCC 13631 incubated for 24 hrs by serial dilution method; type: functional
[12] = Cytotoxicity against mouse NIH/3T3 cells assessed as cell viability at 50 ug/ml after 72 hrs by MTT assay relative to control; type: cell-based, NIH3T3; details: read-out: Activity
[13] = tested on: Escherichia coli; experiment: Antibacterial activity against Escherichia coli MTCC 443 at 100 ug/ml incubated for 12 hrs by agar disc diffusion assay; type: functional; details: MTCC 443, 12 h, read-out: IZ
[14] = tested on: Streptomyces griseus; experiment: Antibacterial activity against Streptomyces griseus MTCC 4734 at 100 ug/ml incubated for 12 hrs by agar disc diffusion assay; type: functional; details: for zone of inhibition at 100 µg/mL: MTCC 4734, 12 h, read-out: IZ
[15] = tested on: Talaromyces funiculosus; experiment: Antifungal activity against Penicillium funiculosum ATCC 11797 at 100 ug/ml incubated for 72 hrs by agar disc diffusion assay; type: functional; details: for zone of inhibition at 100 µg/mL: ATCC 11797, 72 h, read-out: IZ
[16] = tested on: Fusarium oxysporum; experiment: Antifungal activity against Fusarium oxysporum ATCC 62506 incubated for 24 hrs by serial dilution method; type: functional; details: ATCC 62506, 24 h
[17] = tested on: Streptomyces griseus; experiment: Antibacterial activity against Streptomyces griseus MTCC 4734 incubated for 24 hrs by serial dilution method; type: functional
[18] = tested on: Aspergillus niger; experiment: Antifungal activity against Aspergillus niger ATCC 9029 incubated for 24 hrs by serial dilution method; type: functional
[19] = Cytotoxicity against mouse NIH/3T3 cells assessed as cell viability at 100 ug/ml after 72 hrs by MTT assay relative to control; type: cell-based, NIH3T3; details: read-out: Activity
[20] = tested on: Talaromyces funiculosus; experiment: Antifungal activity against Penicillium funiculosum ATCC 11797 incubated for 24 hrs by serial dilution method; type: functional
[21] = tested on: Bacillus subtilis; experiment: Antibacterial activity against Bacillus subtilis MTCC 10619 incubated for 24 hrs by serial dilution method; type: functional
[22] = tested on: Bacillus subtilis; experiment: Potency index, ratio of ampicillin MIC to compound MIC for Bacillus subtilis MTCC 10619 by serial dilution method; type: functional
[23] = tested on: Bacillus subtilis; experiment: Potency index, ratio of chloramphenicol MIC to compound MIC for Bacillus subtilis MTCC 10619 by serial dilution method; type: functional

Row | SMILES | MIC [8] | MIC [10] | MIC ([11]; ATCC 13631, 24 h) | MIC [16] | MIC ([17]; MTCC 4734, 24 h) | MIC ([18]; ATCC 9029, 24 h) | MIC ([20]; ATCC 11797, 24 h) | MIC ([21]; MTCC 10619, 24 h) | viability at 72 h, 25 ug/ml [1] | zone of inhibition at 100 µg/mL [2] | zone of inhibition at 100 µg/mL [3] | zone of inhibition at 100 µg/mL [4] | zone of inhibition at 100 µg/mL [5] | zone of inhibition at 100 µg/mL [7] | viability at 72 h, 250 ug/ml [9] | viability at 72 h, 50 ug/ml [12] | zone of inhibition at 100 µg/mL [13] | zone of inhibition at 100 µg/mL [14] | zone of inhibition at 100 µg/mL [15] | viability at 72 h, 100 ug/ml [19] | other results
1 | O=C1Oc2ccc([N+](=O)[O-])cc2N/C1=C\C(=O)c1ccc(C2CCCCC2)cc1 | 25 µg/mL (≈ 63.7 µM) | 6.25 µg/mL (≈ 15.9 µM) | 25 µg/mL (≈ 63.7 µM) | 50 µg/mL (≈ 127 µM) | 12.5 µg/mL (≈ 31.9 µM) | 25 µg/mL (≈ 63.7 µM) | 25 µg/mL (≈ 63.7 µM) | 12.5 µg/mL (≈ 31.9 µM) | 98.2% | 20 mm | 20 mm | 16 mm | 18 mm | 10 mm | 79.2% | 89.1% | 18 mm | 22 mm | 16 mm | 82.5% | Ratio [6]: 2
2 | O=C1Oc2ccc(Cl)cc2N/C1=C\C(=O)C1CC1 | 50 µg/mL (≈ 190 µM) | 12.5 µg/mL (≈ 47.4 µM) | – | 12.5 µg/mL (≈ 47.4 µM) | – | – | – | 100 µg/mL (≈ 379 µM) | 99% | – | 12 mm | 8 mm | – | 22 mm | 79.1% | 90.3% | 10 mm | – | – | 86.6% | inhibition zone (IZ) [2]: inactive; inhibition zone (IZ) [5]: inactive; MIC [11]: inactive; inhibition zone (IZ) [14]: inactive; inhibition zone (IZ) [15]: inactive; MIC [17]: inactive; MIC [18]: inactive; MIC [20]: inactive
3 | O=C1Oc2ccc([N+](=O)[O-])cc2N/C1=C\C(=O)c1ccc(-c2ccccc2)cc1 | 25 µg/mL (≈ 64.7 µM) | 6.25 µg/mL (≈ 16.2 µM) | 100 µg/mL (≈ 259 µM) | 50 µg/mL (≈ 129 µM) | 12.5 µg/mL (≈ 32.4 µM) | – | 25 µg/mL (≈ 64.7 µM) | 25 µg/mL (≈ 64.7 µM) | 91% | 10 mm | 20 mm | 18 mm | – | 14 mm | 77.1% | 83.5% | 16 mm | 20 mm | 16 mm | 77.6% | inhibition zone (IZ) [5]: inactive; Ratio [6]: 2; MIC [18]: inactive

Further lines, with some results ahead:

Row | MIC [8] | MIC [10] | MIC ([11]; ATCC 13631, 24 h) | MIC [16] | MIC ([17]; MTCC 4734, 24 h) | MIC ([18]; ATCC 9029, 24 h) | MIC ([20]; ATCC 11797, 24 h) | MIC ([21]; MTCC 10619, 24 h) | SMILES | viability at 72 h, 25 ug/ml [1] | zone of inhibition at 100 µg/mL [2] | zone of inhibition at 100 µg/mL [3] | zone of inhibition at 100 µg/mL [4] | zone of inhibition at 100 µg/mL [5] | zone of inhibition at 100 µg/mL [7] | viability at 72 h, 250 ug/ml [9] | viability at 72 h, 50 ug/ml [12] | zone of inhibition at 100 µg/mL [13] | zone of inhibition at 100 µg/mL [14] | zone of inhibition at 100 µg/mL [15] | viability at 72 h, 100 ug/ml [19] | other results
4 | 25 µg/mL (≈ 63.7 µM) | 12.5 µg/mL (≈ 31.9 µM) | 25 µg/mL (≈ 63.7 µM) | 25 µg/mL (≈ 63.7 µM) | 50 µg/mL (≈ 127 µM) | 100 µg/mL (≈ 255 µM) | 100 µg/mL (≈ 255 µM) | 3.12 µg/mL (≈ 7.95 µM) | O=C1Oc2cc([N+](=O)[O-])ccc2N/C1=C\C(=O)c1ccc(C2CCCCC2)cc1 | 97.8% | 12 mm | 14 mm | 24 mm | 8 mm | 20 mm | 78.3% | 89% | 18 mm | 10 mm | 14 mm | 84.6% | Ratio [22]: 8; Ratio [23]: 2
5 | 50 µg/mL (≈ 182 µM) | 100 µg/mL (≈ 365 µM) | – | 12.5 µg/mL (≈ 45.6 µM) | 6.25 µg/mL (≈ 22.8 µM) | 100 µg/mL (≈ 365 µM) | – | – | O=C1Oc2ccc([N+](=O)[O-])cc2N/C1=C\C(=O)C1CC1 | 93.2% | – | 6 mm | – | 6 mm | 22 mm | 73.7% | 86% | 14 mm | 22 mm | – | 79.5% | inhibition zone (IZ) [2]: inactive; inhibition zone (IZ) [4]: inactive; MIC [11]: inactive; inhibition zone (IZ) [15]: inactive; MIC [20]: inactive; MIC [21]: inactive
